Tests used:
Format in all cases: in vivo
[1] = tested on: Surinam grass (Brachiaria decumbens); experiment: Test B preemergence
Procedure, shortened: (§1)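 Visual injury scores, 0 = no effect to 100 = complete control, assigned against controls after 13 to 15 days in the greenhouse. Compounds formulated in non-phytotoxic solvent plus surfactant and applied to soil after planting (pre) or onto foliage of 1- to 4-leaf plants (post).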

[2] = tested on: barnyardgrass (Echinochloa crus-galli); experiment: Test B preemergence
Procedure, shortened: as §1

[3] = tested on: cocklebur (Xanthium strumarium); experiment: Test B preemergence
Procedure, shortened: as §1

corn (Zea mays) = experiment: Test B preemergence
Procedure, shortened: as §1

[4] = tested on: crabgrass (Digitaria sanguinalis); experiment: Test B preemergence
Procedure, shortened: as §1

[5] = tested on: giant foxtail (Setaria faberii); experiment: Test B preemergence
Procedure, shortened: as §1

[6] = tested on: lambsquarters (Chenopodium album); experiment: Test B preemergence
Procedure, shortened: as §1

[7] = tested on: morning glory (Ipomoea hederacea); experiment: Test B preemergence
Procedure, shortened: as §1

[8] = tested on: pigweed (Amaranthus retroflexus); experiment: Test B preemergence
Procedure, shortened: as §1

rice (Oryza saliva) = experiment: Test B preemergence
Procedure, shortened: as §1

[9] = tested on: velvetleaf (Abutilon theophrasti); experiment: Test B preemergence
Procedure, shortened: as §1

[10] = tested on: Surinam grass (Brachiaria decumbens); experiment: Test C preemergence; details: for Plant response rating, Surinam grass: scale 0 to 100, 0 no effect, 100 complete control; for Plant response rating (0 to 100), Surinam grass: visual evaluation after 12 to 14 days
Procedure, shortened: (§2)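 Seeds are planted and treated before emergence; for the postemergence test, plants at 1- to 4-leaf stage (2–18 cm) receive the same formulation, a solvent blend containing surfactant. Plants stay in the greenhouse 12–14 days, then response is scored visually from 0 (none) to 100 (complete control).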

[11] = tested on: bermudagrass (Cynodon dactylon); experiment: Test C preemergence; details: for Plant response rating, Bermudagrass: scale 0 to 100, 0 no effect, 100 complete control; for Plant response rating (0 to 100 where 0 is no effect and 100 is complete control), Bermudagrass: visual evaluation after 12 to 14 days
Procedure, shortened: as §2

[12] = tested on: cocklebur (Xanthium strumarium); experiment: Test C preemergence; details: for Plant response rating, Cocklebur: scale 0 to 100, 0 no effect, 100 complete control; for Plant response rating (0 to 100), Cocklebur: visual evaluation after 12 to 14 days
Procedure, shortened: as §2

[13] = tested on: crabgrass (Digitaria sanguinalis); experiment: Test C preemergence; details: for Plant response rating, Crabgrass: scale 0 to 100, 0 no effect, 100 complete control; for Plant response rating (0 to 100), Crabgrass: visual evaluation after 12 to 14 days
Procedure, shortened: as §2

[14] = tested on: giant foxtail (Setaria faberii); experiment: Test C preemergence; details: for Plant response rating, Foxtail, Giant: scale 0 to 100, 0 no effect, 100 complete control; for Plant response rating (0 to 100), Foxtail, Giant: visual evaluation after 12 to 14 days
Procedure, shortened: as §2

kochia (Kochia scoparia) = experiment: Test C preemergence; details: for Plant response rating, Kochia: scale 0 to 100, 0 no effect, 100 complete control; for Plant response rating (0 to 100), Kochia: visual evaluation after 12 to 14 days
Procedure, shortened: as §2

[15] = tested on: pigweed (Amaranthus retroflexus); experiment: Test C preemergence; details: for Plant response rating (0 to 100), Pigweed: Rate 500 g/ha, visual evaluation after 12 to 14 days; for Plant response rating, Pigweed: scale 0 to 100, 0 no effect, 100 complete control
Procedure, shortened: as §2

soybean (Glycine max) = experiment: Test C preemergence; details: for Plant response rating (0 to 100), Soybean: Rate 500 g/ha, visual evaluation after 12 to 14 days; for Plant response rating, Soybean: scale 0 to 100, 0 no effect, 100 complete control
Procedure, shortened: as §2

[16] = tested on: woolly cupgrass (Eriochloa villosa); experiment: Test C preemergence; details: for Plant response rating, Cupgrass, Woolly: scale 0 to 100, 0 no effect, 100 complete control; for Plant response rating (0 to 100), Cupgrass, Woolly: visual evaluation after 12 to 14 days
Procedure, shortened: as §2

Nightshade = experiment: Test C preemergence; details: Rate 500 g/ha, visual evaluation after 12 to 14 days
Sunflower = experiment: Test C preemergence; details: scale 0 to 100, 0 no effect, 100 complete control
[17] = Preemergence, Rate 500 g/ha, scale 0 to 100, 0 no effect, 100 complete control
[18] = preemergence, Rate 125 g/ha, scale of 0 to 100 where 0 is no effect and 100 is complete control, 13 to 15 days

CCOC(=O)c1cccc(N2CCC(n3ccc(C(C)(C)C)n3)C2=O)c1 (centres unmarked) [Compound 72]
Plant response rating, Surinam grass [1, 17]: 70 | Plant response rating, Surinam grass [1, 18]: 0 | Plant response rating, Barnyardgrass [2, 17]: 100 | Plant response rating, Barnyardgrass [2, 18]: 100 | Plant response rating, Cocklebur [3, 17]: 60 | Plant response rating, Cocklebur [3, 18]: 0 | Plant response rating, Corn (corn (Zea mays); [17]): 0 | Plant response rating, Corn (corn (Zea mays); [18]): 0 | Plant response rating, Crabgrass [4, 17]: 100 | Plant response rating, Crabgrass [4, 18]: 100 | Plant response rating, Foxtail, Giant [5, 17]: 100 | Plant response rating, Foxtail, Giant [5, 18]: 100 | Plant response rating, Lambsquarters [6, 17]: 100 | Plant response rating, Lambsquarters [6, 18]: 100 | Plant response rating, Morningglory [7, 17]: 90 | Plant response rating, Morningglory [7, 18]: 0 | Plant response rating, Pigweed [8, 17]: 100 | Plant response rating, Pigweed [8, 18]: 100 | Plant response rating, Rice (rice (Oryza saliva); [17]): 0 | Plant response rating, Rice (rice (Oryza saliva); [18]): 0 | Plant response rating, Velvetleaf [9, 17]: 90 | Plant response rating, Velvetleaf [9, 18]: 0 | Plant response rating, Surinam grass ([10]; Rate 62 g/ha): 0 | Plant response rating (0 to 100), Surinam grass ([10]; preemergence, Rate 250 g/ha): 80 | Plant response rating (0 to 100), Surinam grass ([10]; preemergence, Rate 500 g/ha): 50 | Plant response rating, Surinam grass ([10]; preemergence, Rate 125 g/ha): 30 | Plant response rating, Bermudagrass ([11]; Rate 62 g/ha): 0 | Plant response rating (0 to 100 where 0 is no effect and 100 is complete control), Bermudagrass ([11]; preemergence, Rate 250 g/ha): 90 | Plant response rating (0 to 100 where 0 is no effect and 100 is complete control), Bermudagrass ([11]; preemergence, Rate 500 g/ha): 100 | Plant response rating, Bermudagrass ([11]; preemergence, Rate 125 g/ha): 90 | Plant response rating, Cocklebur ([12]; Rate 62 g/ha): 0 | Plant response rating (0 to 100), Cocklebur ([12]; preemergence, Rate 250 g/ha): 10 | Plant response rating (0 to 100), Cocklebur ([12]; preemergence, Rate 500 g/ha): 70 | Plant response rating, Cocklebur ([12]; preemergence, Rate 125 g/ha): 30 | Plant response rating, Crabgrass ([13]; Rate 62 g/ha): 90 | Plant response rating (0 to 100), Crabgrass ([13]; preemergence, Rate 250 g/ha): 100 | Plant response rating (0 to 100), Crabgrass ([13]; preemergence, Rate 500 g/ha): 100 | Plant response rating, Crabgrass ([13]; preemergence, Rate 125 g/ha): 100 | Plant response rating, Foxtail, Giant ([14]; Rate 62 g/ha): 30 | Plant response rating (0 to 100), Foxtail, Giant ([14]; preemergence, Rate 250 g/ha): 70 | Plant response rating (0 to 100), Foxtail, Giant ([14]; preemergence, Rate 500 g/ha): 90 | Plant response rating, Foxtail, Giant ([14]; preemergence, Rate 125 g/ha): 70 | Plant response rating, Kochia (kochia (Kochia scoparia); Rate 62 g/ha): 30 | Plant response rating (0 to 100), Kochia (kochia (Kochia scoparia); preemergence, Rate 250 g/ha): 90 | Plant response rating (0 to 100), Kochia (kochia (Kochia scoparia); preemergence, Rate 500 g/ha): 100 | Plant response rating, Kochia (kochia (Kochia scoparia); preemergence, Rate 125 g/ha): 100 | Plant response rating (0 to 100), Pigweed ([15]; preemergence): 100 | Plant response rating, Pigweed ([15]; preemergence, Rate 125 g/ha): 100 | Plant response rating, Pigweed ([15]; preemergence, Rate 250 g/ha): 0 | Plant response rating (0 to 100), Soybean (soybean (Glycine max); preemergence): 20 | Plant response rating, Soybean (soybean (Glycine max); preemergence, Rate 125 g/ha): 0 | Plant response rating, Soybean (soybean (Glycine max); preemergence, Rate 250 g/ha): 0 | Plant response rating, Cupgrass, Woolly ([16]; Rate 62 g/ha): 0 | Plant response rating (0 to 100), Cupgrass, Woolly ([16]; preemergence, Rate 250 g/ha): 80 | Plant response rating (0 to 100), Cupgrass, Woolly ([16]; preemergence, Rate 500 g/ha): 70 | Plant response rating, Cupgrass, Woolly ([16]; preemergence, Rate 125 g/ha): 10 | Plant response rating (0 to 100), Nightshade (Nightshade): 60 | Plant response rating, Sunflower (Sunflower; Rate 125 g/ha): 20 | Plant response rating, Sunflower (Sunflower; Rate 250 g/ha): 20

CC(C)(C)c1ccn(C2CCN(c3ccc(F)c(Br)c3)C2=O)n1 (centres unmarked) [Compound 75]
Plant response rating, Surinam grass [1, 17]: 100 | Plant response rating, Surinam grass [1, 18]: 60 | Plant response rating, Barnyardgrass [2, 17]: 100 | Plant response rating, Barnyardgrass [2, 18]: 100 | Plant response rating, Cocklebur [3, 17]: 70 | Plant response rating, Cocklebur [3, 18]: 30 | Plant response rating, Corn (corn (Zea mays); [17]): 20 | Plant response rating, Corn (corn (Zea mays); [18]): 0 | Plant response rating, Crabgrass [4, 17]: 100 | Plant response rating, Crabgrass [4, 18]: 100 | Plant response rating, Foxtail, Giant [5, 17]: 100 | Plant response rating, Foxtail, Giant [5, 18]: 100 | Plant response rating, Lambsquarters [6, 17]: 100 | Plant response rating, Lambsquarters [6, 18]: 100 | Plant response rating, Morningglory [7, 17]: 0 | Plant response rating, Morningglory [7, 18]: 0 | Plant response rating, Pigweed [8, 17]: 100 | Plant response rating, Pigweed [8, 18]: 100 | Plant response rating, Rice (rice (Oryza saliva); [17]): 70 | Plant response rating, Rice (rice (Oryza saliva); [18]): 50 | Plant response rating, Velvetleaf [9, 17]: 70 | Plant response rating, Velvetleaf [9, 18]: 50 | Plant response rating, Surinam grass ([10]; Rate 62 g/ha): 10 | Plant response rating, Surinam grass ([10]; Rate 125 g/ha): 40 | Plant response rating (0 to 100), Surinam grass ([10]; preemergence, Rate 250 g/ha): 60 | Plant response rating (0 to 100), Surinam grass ([10]; preemergence, Rate 500 g/ha): 60 | Plant response rating, Bermudagrass ([11]; Rate 62 g/ha): 100 | Plant response rating, Bermudagrass ([11]; Rate 125 g/ha): 100 | Plant response rating (0 to 100 where 0 is no effect and 100 is complete control), Bermudagrass ([11]; preemergence, Rate 250 g/ha): 100 | Plant response rating (0 to 100 where 0 is no effect and 100 is complete control), Bermudagrass ([11]; preemergence, Rate 500 g/ha): 100 | Plant response rating, Cocklebur ([12]; Rate 62 g/ha): 0 | Plant response rating, Cocklebur ([12]; Rate 125 g/ha): 0 | Plant response rating (0 to 100), Cocklebur ([12]; preemergence, Rate 250 g/ha): 0 | Plant response rating (0 to 100), Cocklebur ([12]; preemergence, Rate 500 g/ha): 0 | Plant response rating, Crabgrass ([13]; Rate 62 g/ha): 90 | Plant response rating, Crabgrass ([13]; Rate 125 g/ha): 100 | Plant response rating (0 to 100), Crabgrass ([13]; preemergence, Rate 250 g/ha): 100 | Plant response rating (0 to 100), Crabgrass ([13]; preemergence, Rate 500 g/ha): 100 | Plant response rating, Foxtail, Giant ([14]; Rate 62 g/ha): 90 | Plant response rating, Foxtail, Giant ([14]; Rate 125 g/ha): 100 | Plant response rating (0 to 100), Foxtail, Giant ([14]; preemergence, Rate 250 g/ha): 70 | Plant response rating (0 to 100), Foxtail, Giant ([14]; preemergence, Rate 500 g/ha): 100 | Plant response rating, Kochia (kochia (Kochia scoparia); Rate 62 g/ha): 100 | Plant response rating, Kochia (kochia (Kochia scoparia); Rate 125 g/ha): 100 | Plant response rating (0 to 100), Kochia (kochia (Kochia scoparia); preemergence, Rate 250 g/ha): 100 | Plant response rating, Pigweed ([15]; Rate 125 g/ha): 100 | Plant response rating (0 to 100), Pigweed ([15]; preemergence): 100 | Plant response rating, Pigweed ([15]; preemergence, Rate 250 g/ha): 100 | Plant response rating, Soybean (soybean (Glycine max); Rate 125 g/ha): 0 | Plant response rating (0 to 100), Soybean (soybean (Glycine max); preemergence): 50 | Plant response rating, Soybean (soybean (Glycine max); preemergence, Rate 250 g/ha): 0 | Plant response rating, Cupgrass, Woolly ([16]; Rate 62 g/ha): 60 | Plant response rating, Cupgrass, Woolly ([16]; Rate 125 g/ha): 80 | Plant response rating (0 to 100), Cupgrass, Woolly ([16]; preemergence, Rate 250 g/ha): 100 | Plant response rating (0 to 100), Cupgrass, Woolly ([16]; preemergence, Rate 500 g/ha): 100 | Plant response rating (0 to 100), Nightshade (Nightshade): 50 | Plant response rating, Sunflower (Sunflower; Rate 250 g/ha): 0
